According to patent US20140288040A1, “SUBSTITUTED BENZYLAMINE COMPOUNDS, THEIR USE IN MEDICINE, AND IN PARTICULAR THE TREATMENT OF HEPATITIS C VIRUS (HCV) INFECTION” (ASTEX THERAPEUTICS LIMITED, priority 2011, published 2014):
Where a name gives a salt, the structure may show the parent alone. Read-outs that look alike come from different tables or passages of the source.

How the values were obtained:
[1] = test system: HCV subgenomic replicon in Huh-7 cells; experiment: Replicon assay, EC50 luciferase readout; assay type: cell-based, hepatitis C virus (HCV)
Method: The activities of compounds of the invention against HCV in a cellular environment were analysed using a replicon assay as described below.
Thus, Huh-7 cells persistently infected with an HCV-RNA construct (Bartenschlager, R. Hepatitis C replicons: potential role for drug development. Nature Rev. Drug Discov. 1, 911-916 (2002)) comprising: 5′ and 3′ non-translated regions (NTR); the non-structural genes NS3 to NS5b; as well as the G418 drug resistance gene, neomycin, (for selection of cells carrying HCV replicon RNA) fused to the firefly Luciferase reporter gene (pFK13889luc-ubi-neoNS3-3′ET), were used to determine the cell based antiviral activity of compounds using luciferase activity as an indirect readout of HCV RNA load. In this assay […] huh-7 cells persistently infected with the HCV subgenomic replicon construct above were platedwell in a 96 well tissue culture plate. The cells were allowed to attach overnight in DMEM medium supplemented with 10% FBS 1% NEAA, and 250 μgml gentamicin. The following day the medium was replaced with 200 μlwell of fresh medium as described above lacking gentamicin. […] Plates were then incubated at 37° C. in an atmosphere of 5% CO2 and air for 72 h. […] The plate was then read at 535 nm (excitation) and 590 nm (emission) on a SpectraMax Gemini reader (Molecular Devices) to determine the number of viable cells by measuring the conversion of rezasurin (Alamar blue) to resorufin in response to mitochondrial activity. In order to determine the antiviral effect of these compounds EC50 values were determined by measuring the luciferase activity of the cells. Alamar blue solution was removed from the wells and replaced with 100 μlwell of medium along with 100 μlwell of Bright-Glo reagent and incubated at room temperature for 5 minutes before transferring 100 μlwell to a white bottom 96 well plate to read in a luminometer as described in the Bright-Glo Luciferase Assay System protocol (promega).

[2] = molecular target: T1, HCV NS3 protease (full length NS34a) (Hepatitis C virus genotype 1b, UniProt P26663); experiment: HCV NS3 protease assay (FRET, full length NS34a); assay type: biochemical
T1 construct: The protease activity of the full length NS34a was measured using a FRET-based assay; made in house
Procedure, shortened: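 FRET readout over 30 minutes at room temperature, with IC50 fitted to initial rates from replicate curves. Enzyme was full-length NS34a; substrate a peptide from the NS4AB cleavage site labelled with QXL520 and 5-FAMsp; buffer 50 mM Tris pH8 containing 20 mM DTT, 1% CHAPS, 10% glycerol and 5% DMSO.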

[3] = Hepatitis C virus, Huh-7, 72 h, Huh-7 replicon cells, 72 h, single value, or second value of a pair x:y, read-out: Activity EC50 (μM) (EC50 luciferase readout)
[4] = IC50 values of 10-150 μM against the protease activity of the full length NS34a, or at least 40% inhibition of protease activity at a concentration of 100 μM
[5] = protease activity of full length NS34a, FRET peptide substrate, read-out: Activity IC50
[6] = Hepatitis C virus, Huh-7, 72 h, read-out: Activity EC50 (μM) (EC50 luciferase readout), Huh-7 replicon cells, 72 h, single value, or second value of a pair x:y
[7] = Hepatitis C virus, Huh-7, replicon assay, set in line with previous observations, read-out: pre-determined EC50 set for the combination experiments

T1 sequence (P26663 1658-1711): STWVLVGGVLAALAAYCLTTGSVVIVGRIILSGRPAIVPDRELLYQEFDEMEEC
T1 sequence (P26663 1027-1657): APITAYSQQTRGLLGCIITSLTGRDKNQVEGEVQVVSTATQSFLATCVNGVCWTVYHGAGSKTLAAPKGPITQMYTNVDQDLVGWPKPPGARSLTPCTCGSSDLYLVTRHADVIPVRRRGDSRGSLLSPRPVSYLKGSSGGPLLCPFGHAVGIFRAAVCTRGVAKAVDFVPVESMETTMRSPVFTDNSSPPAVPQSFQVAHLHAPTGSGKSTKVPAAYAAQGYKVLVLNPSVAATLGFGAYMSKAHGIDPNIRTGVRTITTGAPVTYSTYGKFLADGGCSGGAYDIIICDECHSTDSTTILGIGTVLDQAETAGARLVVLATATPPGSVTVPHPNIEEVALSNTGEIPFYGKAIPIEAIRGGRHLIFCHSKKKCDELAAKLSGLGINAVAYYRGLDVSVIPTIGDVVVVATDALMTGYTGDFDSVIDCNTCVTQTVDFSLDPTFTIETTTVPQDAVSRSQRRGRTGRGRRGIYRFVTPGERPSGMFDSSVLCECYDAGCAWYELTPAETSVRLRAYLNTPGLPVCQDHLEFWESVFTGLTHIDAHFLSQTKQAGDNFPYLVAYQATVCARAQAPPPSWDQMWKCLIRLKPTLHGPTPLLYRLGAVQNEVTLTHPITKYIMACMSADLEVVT

Structure (SMILES) | EC50 [1, 3] [µM] | further results
NC(C1=NCCN1)c1ccc(F)c(Oc2ccccc2)c1F (stereo not shown) [Example 50, C-(2,4-Difluoro-3-phenoxy-phenyl)-C-(4,5-dihydro-1H-imidazol-2-yl)-methylamine.dihydrobromide] | 23 | IC50 [2, 4]: 10000 to 150000 nM
CCC[C@@H](N[C@@H](C)CC(N)=O)c1ccc(Cl)c(Oc2ccccc2)c1F [Example 125] | 0.38 | IC50 [2, 5]: 230 nM
OCCN[C@H](CC1CCNCC1)c1ccc(F)c(Oc2ccccc2)c1F [Example 87B, 2-[(R)-1-(2,4-Difluoro-3-phenoxy-phenyl)-2-piperidin-4-yl-ethylamino]-ethanol] | 3.9 | IC50 [2, 4]: 10000 to 150000 nM
CC[C@@H](N[C@@H](C)CC(=O)NCC(N)=O)c1ccc(Cl)c(Oc2ccccc2)c1F [Example 178] | 8 | IC50 [2, 5]: 2200 nM
CCC(NC(C)CO)c1ccc(F)c(Oc2ccccc2)c1F (stereo not shown) [Example 32] | 8 | IC50 [2, 5]: 880 nM
CC[C@@H](N[C@H](C)CC(N)=O)c1ccc(Cl)c(Oc2ccc(N)c(Cl)c2)c1F [Example 267] | > 10 | IC50 [2, 5]: 480 nM
CC[C@H](N[C@H](C)CC(N)=O)c1ccc(Cl)c(Oc2ccccc2)c1F [Example 80, (R)-3-[(S)-1-(4-Chloro-2-fluoro-3-phenoxy-phenyl)-propylamino]-butyramide.hydrochloride] | > 10 | IC50 [2, 4]: 10000 to 150000 nM
CC[C@@H](N[C@H](CC(N)=O)C1CC1)c1ccc(Cl)c(Oc2ccccc2)c1F [Example 165] | > 10 | IC50 [2, 4]: 10000 to 150000 nM
CCCC(N)c1ccc(F)c(Oc2ccccc2)c1F (stereo not shown) [Example 12] | 10 | IC50 [2, 5]: 1200 nM
C#Cc1ccc(Oc2c(Cl)ccc([C@@H](CC)N[C@@H](C)CC(N)=O)c2F)cc1 [Example 230] | 0.48 | IC50 [2, 5]: 170 nM
C[C@@H](CC(N)=O)N[C@@H](CC1CCNCC1)c1ccc(F)c(Oc2ccccc2)c1F [Example 98] | > 10 | IC50 [2, 5]: 1600 nM
CC[C@@H](N[C@@H](C)CC(N)=O)c1ccc(Cl)c(Oc2ccc(N)c(C(F)(F)F)c2)c1F [Example 260] | 0.043 | IC50 [2, 5]: 170 nM
CC[C@@H](N[C@H](CC(N)=O)C(C)C)c1ccc(Cl)c(Oc2ccccc2)c1F [Example 143] | 6.2 | IC50 [2, 5]: 540 nM
C[C@H](CO)N[C@H](CC1CCNCC1)c1ccc(F)c(Oc2ccccc2)c1F [Example 90] | 0.36 | IC50 [2, 4]: 10000 to 150000 nM
CC[C@@H](N[C@@H](C)CC(N)=O)c1ccc(Cl)c(Oc2ccc(C#N)c(C)c2)c1F [Example 237] | 0.031 | IC50 [2, 5]: 87 nM
C[C@@H](CC(=O)NCCN)N[C@H](CC1CCOCC1)c1ccc(Cl)c(Oc2ccccc2)c1F [Example 277, (S)—N-(2-Amino-ethyl)-3-[(R)-1-(4-chloro-2-fluoro-3-phenoxy-phenyl)-2-(tetrahydro-pyran-4-yl)-ethylamino]-butyramide.dihydrochloride] | 1 | IC50 [2, 5]: 110 nM
CC(CO)NC(c1ccc(F)c(Oc2ccccc2)c1F)C1CCNCC1 (single isomer, unassigned) [Example 75, 2-{[(2,4-Difluoro-3-phenoxy-phenyl)-piperidin-4-yl-methyl]-amino}-propan-1-ol.dihydrochloride] | 4.8 | IC50 [2, 5]: 3300 nM
CCC(NCc1[nH]cnc1C)c1ccc(F)c(Oc2ccccc2)c1F (stereo not shown) [Example 24] | 18 | IC50 [2, 4]: 10000 to 150000 nM
CCC(NCCC1CCCNC1)c1ccc(F)c(Oc2ccccc2)c1F (stereo not shown) [Example 27] | 0.26 | IC50 [2, 5]: 1000 nM
CC[C@@H](N[C@@H](C)CC(N)=O)c1ccc(Cl)c(Oc2ccc(Cl)cc2)c1F.Cl [Example 400] | 3 | 
CC[C@@H](N[C@@H](C)CC(N)=O)c1ccc(Cl)c(Oc2ccc(-c3ccn[nH]3)cc2)c1F.Cl [Example 417] | 0.91 | 
CCNC(=O)CNC(=O)C[C@H](C)N[C@H](CC)c1ccc(Cl)c(Oc2ccccc2)c1F [Example 243] | 3.8 | 
CC[C@H](NCC(N)=O)c1ccc(F)c(Oc2ccccc2)c1F [Example 301] | 26 | 
CC[C@@H](N[C@@H](C)CC(N)=O)c1ccc(Cl)c(Oc2ccc(NC(=O)N(C)C)cc2)c1F.Cl [Example 407] | 0.11 | 

Structure (SMILES) | EC50 [1, 3] [µM] | further results
CC[C@@H](N[C@@H](C)CC(N)=O)c1ccc(Cl)c(Oc2ccc(NC(C)=O)cc2)c1F [Example 405] | 0.3 | 
C[C@@H](CC(N)=O)N[C@@H](c1ccc(Cl)c(Oc2ccc(C(N)=O)nc2)c1F)C1CC1.Cl [Example 456] | > 3 | 
CC[C@@H](N[C@@H](C)CC(N)=O)c1ccc(Cl)c(Oc2ccc3c(c2)OCCN3)c1F.Cl [Example 409] | 0.02 | 
CC[C@@H](N[C@@H](C)CC(N)=O)c1ccc(Cl)c(Oc2ccc(NC(C)=O)nc2)c1Cl [Example 458] | 3.5 | 
CC[C@@H](N[C@@H](C)CC(N)=O)c1ccc(Cl)c(Oc2ccccc2)c1C [Example 468] | > 3 | 
CC[C@@H](N[C@@H](C)CC(N)=O)c1ccc(Cl)c(Oc2ccc(N)cc2)c1F.Cl [Example 404] | 0.023 | 
CC[C@@H](NC(C)(C)CC(N)=O)c1ccc(Cl)c(Oc2ccc(N)nc2)c1F [Example 460, 3-{[(1R)-1-{3-[(6-aminopyridin-3-yl)oxy]-4-chloro-2-fluorophenyl}propyl]amino}-3-methylbutanamide hydrochloride (1:1)] | 0.13 | 
CC[C@@H](N[C@@H](C)CC(N)=O)c1ccc(Cl)c(Oc2ncccn2)c1F.Cl [Example 431] | > 3 | 
C[C@@H](CC(N)=O)N[C@@H](c1ccc(Cl)c(Oc2ccc(N)nc2)c1F)C1CC1.Cl [Example 454] |  | EC50 [1, 6]: 0.16 µM
CC[C@@H](N[C@@H](C)CC(N)=O)c1ccc(Cl)c(Oc2ccc3c(c2)OCCO3)c1F.Cl [Example 410] | 0.31 | 
CC[C@H](NCCC(=O)NO)c1ccc(F)c(Oc2ccccc2)c1F [Example 302] | 6.9 | 
CC(C)(C)OC(=O)N[C@H]1CCCCC/C=C\[C@@H]2C[C@@]2(C(=O)NS(=O)(=O)C2CC2)NC(=O)[C@@H]2C[C@@H](OC(=O)N3Cc4cccc(F)c4C3)CN2C1=O [Danoprevir, reference compound] |  | EC50 [1, 7]: 0.001 µM
CC[C@@H](N[C@@H](C)CC(N)=O)c1ccc(Cl)c(Oc2ccccn2)c1F.Cl [Example 413] | 3 | 
CC[C@@H](N[C@@H](C)CC(N)=O)c1ccc(Cl)c(Oc2nc3cnccc3s2)c1F.Cl [Example 438] | > 3 | 
CC[C@@H](N[C@@H](C)CC(N)=O)c1ccc(Cl)c(Oc2ccc(F)c(C(N)=O)c2)c1F.Cl [Example 419] | 0.82 | 
C[C@@H](CC(N)=O)N[C@@H](c1ccc(Cl)c(Oc2ccccc2)c1F)C1CC1 [Example 459] | 0.63 | 
CCC(NC1CCCNC1)c1ccc(F)c(Oc2ccccc2)c1F (stereo not shown) [Example 18] |  | EC50 ([1]; Huh-7 replicon cells, 72 h, single value, or second value of a pair x:y, read-out: Activity EC50 (μM) (EC50 luciferase readout)): 1.6 µM
CC[C@@H](N[C@@H](C)CC(N)=O)c1ccc(Cl)c(Oc2ccc(F)c(C(=O)N(C)C)c2)c1F.Cl [Example 425] | 0.35 | 
CC(C)(C)C#Cc1cc(N(C(=O)[C@H]2CC[C@H](C)CC2)[C@H]2CC[C@H](O)CC2)c(C(=O)O)s1 [VX-222, Lomibuvir, reference compound] |  | EC50 [1, 7]: 0.003 µM
[2H]C([2H])([2H])C([2H])([2H])[C@@H](N[C@@H](C)CC(N)=O)c1ccc(Cl)c(Oc2ccccc2)c1F [Example 472] | > 3 | 
CC[C@@H](N[C@@H](C)CC(N)=O)c1ccc(Cl)c(Oc2ccc(F)c(C(=O)N3CCOCC3)c2)c1F.Cl [Example 423] | 1.4 | 
CC[C@@H](N[C@@H](C)CC(N)=O)c1ccc(Cl)c(Oc2ncc(N)cn2)c1F.Cl [Example 433] | 1.6 | 
CC[C@@H](N[C@@H](C)CC(N)=O)c1ccc(Cl)c(Oc2ccc(C(N)=O)cc2)c1F.Cl [Example 444] |  | EC50 [1, 6]: 0.82 µM
CC[C@@H](N[C@@H](C)CC(N)=O)c1ccc(Cl)c(Oc2nc3ccccc3s2)c1F.Cl [Example 435] | 3 | 
